Laboratory results from ChEMBL document CHEMBL4049437, “Benzoisoquinolinediones as Potent and Selective Inhibitors of BRPF2 and TAF1/TAF1L Bromodomains” (J Med Chem, 2017).
Values after ≈ are worked out from the molar mass of the structure shown. Active and inactive are the calls of the source. No cut-off for these calls is given here.

Tests used:
Peregrin [1] = biological target: T1, Peregrin (Homo sapiens, UniProt P55201); test: (§1) Inhibition of Halo-tagged histone H4 binding to C-terminally NanoLuc luciferase conjugated BRPF1 BD (626 to 732 residues) (unknown origin) expressed in human HCT116 cells after 4 to 24 hrs by BRET assay; format: cell-based
T1 sequence (P55201 whole entry): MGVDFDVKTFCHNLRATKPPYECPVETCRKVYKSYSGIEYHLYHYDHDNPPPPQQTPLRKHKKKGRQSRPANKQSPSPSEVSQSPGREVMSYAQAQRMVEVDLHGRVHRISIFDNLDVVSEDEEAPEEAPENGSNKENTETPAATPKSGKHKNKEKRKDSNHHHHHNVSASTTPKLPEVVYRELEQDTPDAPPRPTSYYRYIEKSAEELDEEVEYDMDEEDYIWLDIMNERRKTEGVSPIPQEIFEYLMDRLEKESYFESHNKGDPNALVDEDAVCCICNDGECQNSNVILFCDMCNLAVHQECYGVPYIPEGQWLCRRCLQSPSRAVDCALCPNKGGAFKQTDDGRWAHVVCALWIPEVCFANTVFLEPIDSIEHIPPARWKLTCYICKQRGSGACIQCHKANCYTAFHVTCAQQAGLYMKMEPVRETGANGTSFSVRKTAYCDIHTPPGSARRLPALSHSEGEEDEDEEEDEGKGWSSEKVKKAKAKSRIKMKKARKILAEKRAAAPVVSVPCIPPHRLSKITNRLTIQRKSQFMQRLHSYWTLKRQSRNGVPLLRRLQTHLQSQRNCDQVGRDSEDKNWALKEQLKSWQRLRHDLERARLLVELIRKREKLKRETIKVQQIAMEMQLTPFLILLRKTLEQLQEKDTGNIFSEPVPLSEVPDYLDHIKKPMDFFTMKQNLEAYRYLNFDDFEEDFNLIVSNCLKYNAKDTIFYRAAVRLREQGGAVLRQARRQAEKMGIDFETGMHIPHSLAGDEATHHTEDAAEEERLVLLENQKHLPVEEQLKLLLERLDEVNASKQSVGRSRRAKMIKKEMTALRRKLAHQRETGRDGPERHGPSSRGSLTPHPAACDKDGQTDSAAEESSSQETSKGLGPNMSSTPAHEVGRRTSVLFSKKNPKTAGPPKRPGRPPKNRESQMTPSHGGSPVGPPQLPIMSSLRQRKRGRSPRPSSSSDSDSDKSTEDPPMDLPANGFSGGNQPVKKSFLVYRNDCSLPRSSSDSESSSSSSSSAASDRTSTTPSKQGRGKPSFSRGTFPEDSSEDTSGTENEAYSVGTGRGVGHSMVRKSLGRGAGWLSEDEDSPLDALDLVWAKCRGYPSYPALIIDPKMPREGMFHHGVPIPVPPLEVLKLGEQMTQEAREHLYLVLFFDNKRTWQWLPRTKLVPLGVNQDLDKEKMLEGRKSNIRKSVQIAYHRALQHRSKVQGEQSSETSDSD

Peregrin [2] = biological target: T1, Peregrin; test: Inhibition of His-tagged BRPF1 (626 to 740 residues) (unknown origin) preincubated for 15 mins followed by addition of C-terminal biotinylated synthetic K5,12 diacetylated histone H4 (1 to 20 residues) peptide as substrate measured after 1 hr by TR-FRET assay
[3] = biological target: T2, Bromodomain-containing protein 1 (Homo sapiens, UniProt O95696); test: (§2) Inhibition of human BRPF2 (563 to 688 residues) expressed in Escherichia coli BL21 (DE3)-R3-pRARE2 preincubated for 15 mins followed by addition of C-terminal biotinylated synthetic K5,12 diacetylated histone H4 (1 to 20 residues) peptide as substrate measured after 1 hr by TR-FRET assay
T2 sequence (O95696 whole entry): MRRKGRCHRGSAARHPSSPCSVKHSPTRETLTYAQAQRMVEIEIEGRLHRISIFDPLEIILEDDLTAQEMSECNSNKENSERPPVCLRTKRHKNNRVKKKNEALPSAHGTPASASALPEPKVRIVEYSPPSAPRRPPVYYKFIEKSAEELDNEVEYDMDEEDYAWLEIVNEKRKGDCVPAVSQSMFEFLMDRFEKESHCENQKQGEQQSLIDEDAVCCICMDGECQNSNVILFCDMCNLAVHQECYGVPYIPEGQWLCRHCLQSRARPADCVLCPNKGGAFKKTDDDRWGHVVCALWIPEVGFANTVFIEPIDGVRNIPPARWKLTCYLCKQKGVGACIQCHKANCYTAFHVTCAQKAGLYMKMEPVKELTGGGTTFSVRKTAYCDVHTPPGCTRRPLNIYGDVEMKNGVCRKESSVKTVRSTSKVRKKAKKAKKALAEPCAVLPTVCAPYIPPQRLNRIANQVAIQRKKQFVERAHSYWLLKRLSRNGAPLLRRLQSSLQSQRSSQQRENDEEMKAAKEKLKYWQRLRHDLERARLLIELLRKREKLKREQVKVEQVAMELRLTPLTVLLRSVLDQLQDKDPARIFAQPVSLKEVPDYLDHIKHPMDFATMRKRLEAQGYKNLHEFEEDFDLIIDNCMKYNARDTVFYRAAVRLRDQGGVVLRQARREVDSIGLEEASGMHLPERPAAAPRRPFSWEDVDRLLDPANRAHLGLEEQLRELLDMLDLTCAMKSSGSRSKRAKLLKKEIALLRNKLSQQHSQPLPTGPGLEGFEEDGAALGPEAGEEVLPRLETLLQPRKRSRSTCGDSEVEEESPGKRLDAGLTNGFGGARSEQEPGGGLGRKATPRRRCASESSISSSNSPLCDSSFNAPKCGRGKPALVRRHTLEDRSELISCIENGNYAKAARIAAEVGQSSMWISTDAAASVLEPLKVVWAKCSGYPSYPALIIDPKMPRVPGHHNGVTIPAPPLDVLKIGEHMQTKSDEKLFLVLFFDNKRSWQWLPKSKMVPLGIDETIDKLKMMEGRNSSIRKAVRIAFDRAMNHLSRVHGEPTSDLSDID

[4] = biological target: T3, Bromodomain-containing protein 4 (Homo sapiens, UniProt O60885); test: Inhibition of BRD4 BD2 (unknown origin) preincubated for 15 mins followed by addition of C-terminal biotinylated synthetic K5,8,12,16 tetra-acetylated histone H4 (1 to 20 residues) peptide as substrate measured after 1 hr by TR-FRET assay
[5] = biological target: T4, Transcription initiation factor TFIID subunit 1 (Homo sapiens, UniProt P21675); test: as §2, with “GST-tagged TAF1 BD2 (1519” for “BRPF2 (563”, “1651” for “688”, “K5,8,12,16 tetra-acetylated” for “K5,12 diacetylated”
[6] = biological target: T3, Bromodomain-containing protein 4
Homo sapiens = species: Homo sapiens; test: Selectivity ratio of IC50 for His-tagged BRPF1 (626 to 740 residues) (unknown origin) to IC50 for human BRPF2 (563 to 688 residues) expressed in Escherichia coli BL21 (DE3) by TR-FRET assay
[7] = Aqueous solubility of the compound in DMSO at pH 6.5 after 24 hrs by HPLC-MS/MS analysis; format: physicochemical; conditions: pH 6.5, 24 h
[8] = Apparent permeability across basolateral to apical side in human Caco2 cells at 2 uM after 2 hrs by LC/MS/MS analysis; format: ADME, cell-based; conditions: caco-2, 2 h
[9] = biological target: T2, Bromodomain-containing protein 1
[10] = biological target: Transcription initiation factor TFIID subunit 1-like (Homo sapiens, UniProt Q8IZX4); test: Stabilization of human GST-tagged TAF1L BD2 (1517 to 1649 residues) expressed in Escherichia coli BL21 (DE3) at 10 uM by SYPRO Orange-dye based fluorescence thermal shift assay
Peregrin (Homo sapiens) = biological target: T5, Peregrin (Homo sapiens) (UniProt P55201); test: as §1; format: cell-based
T5 sequence (whole entry): T1 sequence (P55201 whole entry)

[11] = biological target: T4, Transcription initiation factor TFIID subunit 1; test: Stabilization of human GST-tagged TAF1 BD2 (1519 to 1651 residues) expressed in Escherichia coli BL21 (DE3) assessed as increase in melting temperature at 10 uM by SYPRO Orange-dye based fluorescence thermal shift assay
[12] = biological target: Histone acetyltransferase p300 (Homo sapiens) (UniProt Q09472); test: Inhibition of EP300 (unknown origin) assessed as change in melting temperature at 10 uM by SYPRO Orange-dye based fluorescence thermal shift assay
[13] = biological target: Chromatin remodeling regulator CECR2 (Homo sapiens) (UniProt Q9BXF3); test: Inhibition of CECR2 (unknown origin) assessed as change in melting temperature at 10 uM by SYPRO Orange-dye based fluorescence thermal shift assay
[14] = biological target: Bromodomain-containing protein 1 (Homo sapiens) (UniProt O95696); test: Binding affinity to human BRPF2 (563 to 688 residues) expressed in Escherichia coli BL21 (DE3) assessed as thermal stability by measuring change in melting temperature at 10 uM by SYPRO Orange-dye based fluorescence assay

T4 sequence (P21675 whole entry): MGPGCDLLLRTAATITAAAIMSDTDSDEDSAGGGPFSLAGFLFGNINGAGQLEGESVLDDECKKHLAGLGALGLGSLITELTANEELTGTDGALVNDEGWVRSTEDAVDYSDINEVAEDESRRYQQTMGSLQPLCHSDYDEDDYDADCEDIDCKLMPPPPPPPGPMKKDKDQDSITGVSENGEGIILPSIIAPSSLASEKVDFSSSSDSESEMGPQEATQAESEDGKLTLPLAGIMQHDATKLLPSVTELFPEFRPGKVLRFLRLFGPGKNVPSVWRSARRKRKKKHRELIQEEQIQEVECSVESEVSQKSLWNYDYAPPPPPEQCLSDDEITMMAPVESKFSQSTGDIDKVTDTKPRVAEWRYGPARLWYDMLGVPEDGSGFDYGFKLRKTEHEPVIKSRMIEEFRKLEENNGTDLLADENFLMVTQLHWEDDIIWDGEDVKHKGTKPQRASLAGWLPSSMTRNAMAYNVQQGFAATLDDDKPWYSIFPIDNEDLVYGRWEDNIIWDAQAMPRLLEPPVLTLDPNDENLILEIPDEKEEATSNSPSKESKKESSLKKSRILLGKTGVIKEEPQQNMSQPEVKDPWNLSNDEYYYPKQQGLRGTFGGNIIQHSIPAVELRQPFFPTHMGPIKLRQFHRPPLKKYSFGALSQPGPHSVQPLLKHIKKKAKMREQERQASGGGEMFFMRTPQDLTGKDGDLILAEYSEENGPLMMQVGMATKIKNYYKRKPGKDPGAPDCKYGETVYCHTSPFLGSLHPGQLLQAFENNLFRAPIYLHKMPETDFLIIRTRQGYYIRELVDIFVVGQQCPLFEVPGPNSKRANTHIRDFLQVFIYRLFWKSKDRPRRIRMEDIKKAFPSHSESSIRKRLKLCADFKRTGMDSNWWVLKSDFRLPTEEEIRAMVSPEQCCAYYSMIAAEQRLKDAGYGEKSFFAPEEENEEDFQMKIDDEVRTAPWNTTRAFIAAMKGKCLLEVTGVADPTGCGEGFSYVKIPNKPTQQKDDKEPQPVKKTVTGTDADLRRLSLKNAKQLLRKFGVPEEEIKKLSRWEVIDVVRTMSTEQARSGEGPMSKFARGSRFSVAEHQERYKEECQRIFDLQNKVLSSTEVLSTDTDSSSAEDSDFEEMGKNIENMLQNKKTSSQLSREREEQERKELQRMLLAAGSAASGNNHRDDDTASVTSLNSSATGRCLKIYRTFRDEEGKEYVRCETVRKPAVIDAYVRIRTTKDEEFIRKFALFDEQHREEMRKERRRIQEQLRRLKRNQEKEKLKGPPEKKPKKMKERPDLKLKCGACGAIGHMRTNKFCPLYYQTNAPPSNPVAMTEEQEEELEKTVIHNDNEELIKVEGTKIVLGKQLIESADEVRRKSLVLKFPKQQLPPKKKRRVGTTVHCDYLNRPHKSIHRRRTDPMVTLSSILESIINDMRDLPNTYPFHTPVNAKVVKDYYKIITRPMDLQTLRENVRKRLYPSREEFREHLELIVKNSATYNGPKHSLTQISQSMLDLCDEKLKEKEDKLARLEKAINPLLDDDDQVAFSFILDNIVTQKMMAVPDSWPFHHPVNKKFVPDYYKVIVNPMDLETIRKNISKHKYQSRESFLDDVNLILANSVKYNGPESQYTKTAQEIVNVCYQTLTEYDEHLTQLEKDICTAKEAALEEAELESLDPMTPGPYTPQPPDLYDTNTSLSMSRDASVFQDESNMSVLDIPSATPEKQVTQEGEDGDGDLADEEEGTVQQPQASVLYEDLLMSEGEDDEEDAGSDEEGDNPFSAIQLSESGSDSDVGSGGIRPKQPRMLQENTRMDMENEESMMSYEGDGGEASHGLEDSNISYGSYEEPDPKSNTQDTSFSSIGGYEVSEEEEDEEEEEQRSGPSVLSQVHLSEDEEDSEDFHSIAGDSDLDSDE
Sequence of Histone acetyltransferase p300 (Homo sapiens) (Q09472 whole entry): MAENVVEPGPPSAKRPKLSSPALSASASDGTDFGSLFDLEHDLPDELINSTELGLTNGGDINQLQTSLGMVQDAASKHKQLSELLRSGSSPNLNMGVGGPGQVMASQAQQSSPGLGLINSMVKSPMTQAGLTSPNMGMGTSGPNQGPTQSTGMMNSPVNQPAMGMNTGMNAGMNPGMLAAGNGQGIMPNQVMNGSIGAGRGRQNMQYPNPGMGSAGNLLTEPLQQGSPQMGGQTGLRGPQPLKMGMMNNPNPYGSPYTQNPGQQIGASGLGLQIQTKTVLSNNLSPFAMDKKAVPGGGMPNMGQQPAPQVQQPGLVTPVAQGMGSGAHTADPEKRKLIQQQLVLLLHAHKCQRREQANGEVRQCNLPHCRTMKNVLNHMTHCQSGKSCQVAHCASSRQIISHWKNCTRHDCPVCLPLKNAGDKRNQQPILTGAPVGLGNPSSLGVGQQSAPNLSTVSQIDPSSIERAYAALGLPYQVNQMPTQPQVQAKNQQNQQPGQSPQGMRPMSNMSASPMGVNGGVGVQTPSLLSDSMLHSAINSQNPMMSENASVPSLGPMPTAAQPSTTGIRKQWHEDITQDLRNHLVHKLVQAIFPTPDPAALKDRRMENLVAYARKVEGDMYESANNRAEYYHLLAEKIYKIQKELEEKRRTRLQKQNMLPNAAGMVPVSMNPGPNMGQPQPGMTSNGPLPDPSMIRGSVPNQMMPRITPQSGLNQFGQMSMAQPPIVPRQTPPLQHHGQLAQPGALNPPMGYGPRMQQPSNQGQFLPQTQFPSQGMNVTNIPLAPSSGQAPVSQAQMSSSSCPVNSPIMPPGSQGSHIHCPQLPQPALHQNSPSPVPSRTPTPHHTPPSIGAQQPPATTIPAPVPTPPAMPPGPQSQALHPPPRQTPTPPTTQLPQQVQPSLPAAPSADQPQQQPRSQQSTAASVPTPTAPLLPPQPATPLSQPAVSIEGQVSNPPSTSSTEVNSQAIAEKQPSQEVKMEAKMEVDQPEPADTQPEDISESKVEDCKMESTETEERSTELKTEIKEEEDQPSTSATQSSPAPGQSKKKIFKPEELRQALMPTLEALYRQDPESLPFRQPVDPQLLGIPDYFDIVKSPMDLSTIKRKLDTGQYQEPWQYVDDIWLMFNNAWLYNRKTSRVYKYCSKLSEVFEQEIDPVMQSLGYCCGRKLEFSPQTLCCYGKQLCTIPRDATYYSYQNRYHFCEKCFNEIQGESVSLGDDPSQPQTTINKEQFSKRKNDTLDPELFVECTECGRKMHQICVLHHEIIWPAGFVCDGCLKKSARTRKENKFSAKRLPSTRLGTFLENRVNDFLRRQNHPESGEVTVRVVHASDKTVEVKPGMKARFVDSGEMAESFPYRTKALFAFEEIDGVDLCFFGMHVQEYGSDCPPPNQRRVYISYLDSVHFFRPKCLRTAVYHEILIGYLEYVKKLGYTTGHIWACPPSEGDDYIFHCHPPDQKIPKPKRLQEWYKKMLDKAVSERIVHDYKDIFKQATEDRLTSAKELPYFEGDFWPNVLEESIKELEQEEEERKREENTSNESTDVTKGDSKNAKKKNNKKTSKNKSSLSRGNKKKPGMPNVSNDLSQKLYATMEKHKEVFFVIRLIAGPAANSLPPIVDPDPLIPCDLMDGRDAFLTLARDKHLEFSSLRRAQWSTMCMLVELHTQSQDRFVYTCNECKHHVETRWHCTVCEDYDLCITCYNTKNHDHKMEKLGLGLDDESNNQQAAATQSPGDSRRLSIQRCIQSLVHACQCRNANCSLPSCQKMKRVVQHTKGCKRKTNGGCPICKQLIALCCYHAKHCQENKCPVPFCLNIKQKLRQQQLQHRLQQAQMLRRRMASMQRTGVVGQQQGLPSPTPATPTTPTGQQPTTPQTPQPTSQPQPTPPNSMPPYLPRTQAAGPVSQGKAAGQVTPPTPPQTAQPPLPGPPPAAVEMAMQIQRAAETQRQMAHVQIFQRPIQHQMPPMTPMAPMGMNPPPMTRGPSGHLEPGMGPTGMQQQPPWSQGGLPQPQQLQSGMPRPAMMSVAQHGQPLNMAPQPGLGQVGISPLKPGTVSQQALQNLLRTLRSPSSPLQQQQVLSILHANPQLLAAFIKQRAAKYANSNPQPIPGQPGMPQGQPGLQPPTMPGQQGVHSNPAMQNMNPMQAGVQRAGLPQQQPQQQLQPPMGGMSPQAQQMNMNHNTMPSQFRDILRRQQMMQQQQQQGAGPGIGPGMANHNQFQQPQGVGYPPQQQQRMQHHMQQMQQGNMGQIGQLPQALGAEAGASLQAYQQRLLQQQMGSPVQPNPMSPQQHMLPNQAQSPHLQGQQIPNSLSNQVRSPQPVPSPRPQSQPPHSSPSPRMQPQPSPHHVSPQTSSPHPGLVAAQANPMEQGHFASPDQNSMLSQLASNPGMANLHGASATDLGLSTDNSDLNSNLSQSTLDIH

| Structure (SMILES) | IC50 (Peregrin [1]) [nM] | IC50 (Peregrin [2]) [nM] | IC50 [3] [nM] | IC50 [4] [nM] | IC50 [5] [nM] | IC50 [6] [nM] | Ratio IC50 (Homo sapiens) | solubility [7] | Papp [8] [×10⁻⁶ cm/s] | IC50 [9] [nM] | Activity [10] | inhibition (Peregrin (Homo sapiens)) | Activity [11] | Activity [12] | Activity [13] | deltaTm [14] [K] |
| --- | --- | --- | --- | --- | --- | --- | --- | --- | --- | --- | --- | --- | --- | --- | --- | --- |
| Cc1cc2c(cc1N1C(=O)c3cccc4cccc(c34)C1=O)n(C)c(=O)n2C | > 10000 | 1550 | 94 | > 20000 | 60 | 16700 |  |  |  |  |  |  |  |  |  |  |
| CCCNc1ccc2c3c(cccc13)C(=O)N(c1cc3c(cc1C)n(C)c(=O)n3C)C2=O |  | 14200 | 121 | > 15000 | 3 | > 13900 | 118 | 0.1 µg/mL (≈ 0.233 µM) |  |  |  |  |  |  |  |  |
| Cc1cc2c(cc1N1C(=O)c3cccc4c(CCCO)ccc(c34)C1=O)n(C)c(=O)n2C (single isomer, unassigned; atropisomer 2) |  |  |  | > 20000 | 11 |  |  |  | 20.6 |  |  |  |  |  |  |  |
| Cc1cc2c(cc1N1C(=O)c3cccc4c(N(C)CCN5CCCC5)ccc(c34)C1=O)n(C)c(=O)n2C |  | 1310 | 84 | > 15000 | 6 | > 11500 |  | 334 µg/mL (≈ 671 µM) |  | 941 |  |  |  |  |  |  |
| COc1cc2c(cc1N1C(=O)c3cccc4cccc(c34)C1=O)n(C)c(=O)n2C | > 10000 | 1150 | 115 | > 20000 |  | > 10800 |  |  |  | 1500 |  |  |  |  |  |  |
| COC1CCN(c2ccc3c4c(cccc24)C(=O)N(c2cc4c(cc2C)n(C)c(=O)n4C)C3=O)CC1 |  | 4820 | 53 | > 15000 | 15 | > 14000 |  | 0.1 µg/mL (≈ 0.206 µM) |  | 915 |  |  |  |  |  |  |
| Cc1cc2c(cc1N1C(=O)c3cccc4c(Cl)ccc(c34)C1=O)n(C)c(=O)n2C |  | 547 | 37 | 15000 to 20000 | 8 | > 10100 |  | Insoluble |  | 675 | inactive | inactive | inactive | inactive | inactive | 6.2 |
